From ChEMBL document CHEMBL3046853, “Synthesis, antimicrobial evaluation, ot-QSAR and mt-QSAR studies of 2-amino benzoic acid derivatives” (2012)
Active and inactive are the calls of the source. No cut-off for these calls is given here.

Assays:
Aspergillus niger [1] = experiment: Fungicidal activity against Aspergillus niger after 7 days by serial dilution technique; type: functional, organism-based
Candida albicans [2] = experiment: Fungicidal activity against Candida albicans; type: functional, organism-based
Escherichia coli [3] = experiment: Bactericidal activity against Escherichia coli; type: functional, organism-based
Bacillus subtilis [4] = experiment: Bactericidal activity against Bacillus subtilis; type: functional, organism-based
Staphylococcus aureus [5] = experiment: Bactericidal activity against Staphylococcus aureus; type: functional, organism-based
Candida albicans [6] = experiment: Antifungal activity against Candida albicans after 2 days by serial dilution technique; type: functional
Aspergillus niger [7] = experiment: Antifungal activity against Aspergillus niger after 7 days by serial dilution technique; type: functional
Escherichia coli [8] = experiment: Antibacterial activity against Escherichia coli after 24 hr by serial dilution technique; type: functional
Bacillus subtilis [9] = experiment: Antibacterial activity against Bacillus subtilis after 24 hr by serial dilution technique; type: functional
Staphylococcus aureus [10] = experiment: Antibacterial activity against Staphylococcus aureus after 24 hr by serial dilution technique; type: functional

Nc1ccccc1C(=O)Nc1ccc(F)c(Cl)c1
Activity (Aspergillus niger [1]): Active
Activity (Candida albicans [2]): Active
Activity (Escherichia coli [3]): Active
Activity (Bacillus subtilis [4]): Active
Activity (Staphylococcus aureus [5]): Active
-logMIC (Candida albicans [6]): 1.33
-logMIC (Aspergillus niger [7]): 1.02
-logMIC (Escherichia coli [8]): 1.33
-logMIC (Bacillus subtilis [9]): 2.23
-logMIC (Staphylococcus aureus [10]): 1.33
